Values of other authors in US4168274A, “Production of a peracid and an oxirane” (priority 1975, dated 1979).

Conditions: Table I, carboxylic acids and solvents, symbols .infin., v, s, δ

Row | Structure (SMILES) | solubility in water
1 | CCCCCC(=O)O [caproic] | δ
2 | CCCl [chloroethane] | δ
3 | CCCOCCC [di n-propyl ether] | δ
4 | CCOC(=O)CC [ethyl propionate] | δ
5 | CCCCCCC(=O)O [n.heptoic] | δ
6 | O=[N+]([O-])c1ccccc1 [nitrobenzene] | δ
7 | CC(Cl)CCl (centres unmarked) [propylene dichloride] | δ
8 | ClC(Cl)C(Cl)Cl [tetrachloroethane] | δ
